According to article PMC7026418, “The kinase polypharmacology landscape of clinical PARP inhibitors” (Scientific Reports, 2020):
Read-outs that look alike come from different tables or passages of the source.

Experiments:
Test in all cases: biochemical
Design in all cases: DiscoveRx KINOMEscan active site-directed competition binding; percent of control kinase bound to immobilised ligand
[1] = target: T1, RPS6KA5(Kin.Dom.2-C-terminal) (Homo sapiens, UniProt O75582)
T1 construct: Kin.Dom.2-C-terminal

TAK1 = target: T2, TAK1 (Homo sapiens, UniProt O43318)
T2 construct: gene MAP3K7
T2 sequence (O43318 1-606): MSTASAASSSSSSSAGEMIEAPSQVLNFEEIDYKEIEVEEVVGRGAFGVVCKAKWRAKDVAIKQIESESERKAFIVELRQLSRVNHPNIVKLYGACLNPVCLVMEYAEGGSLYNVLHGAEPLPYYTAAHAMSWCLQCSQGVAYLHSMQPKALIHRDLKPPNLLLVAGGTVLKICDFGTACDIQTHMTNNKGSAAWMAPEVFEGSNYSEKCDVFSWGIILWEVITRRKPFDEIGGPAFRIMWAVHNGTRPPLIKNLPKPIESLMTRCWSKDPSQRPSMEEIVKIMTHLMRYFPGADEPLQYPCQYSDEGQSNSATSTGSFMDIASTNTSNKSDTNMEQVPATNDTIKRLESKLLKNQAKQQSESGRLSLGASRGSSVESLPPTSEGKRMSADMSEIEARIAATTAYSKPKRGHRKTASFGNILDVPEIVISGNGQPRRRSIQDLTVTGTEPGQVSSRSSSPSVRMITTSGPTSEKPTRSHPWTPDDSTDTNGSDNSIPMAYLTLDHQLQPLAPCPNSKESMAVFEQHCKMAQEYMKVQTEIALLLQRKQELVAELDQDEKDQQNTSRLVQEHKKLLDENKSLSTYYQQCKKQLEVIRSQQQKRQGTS

ROCK1 = ROCK1 (Homo sapiens, UniProt Q13464)
PIK3CA(H1047Y) = PIK3CA(H1047Y) (Homo sapiens, UniProt P42336, H1047Y)
PIP5K2B = target: T3, PIP5K2B (Homo sapiens, UniProt P78356)
T3 construct: gene PIP4K2B
T3 sequence (P78356 1-416): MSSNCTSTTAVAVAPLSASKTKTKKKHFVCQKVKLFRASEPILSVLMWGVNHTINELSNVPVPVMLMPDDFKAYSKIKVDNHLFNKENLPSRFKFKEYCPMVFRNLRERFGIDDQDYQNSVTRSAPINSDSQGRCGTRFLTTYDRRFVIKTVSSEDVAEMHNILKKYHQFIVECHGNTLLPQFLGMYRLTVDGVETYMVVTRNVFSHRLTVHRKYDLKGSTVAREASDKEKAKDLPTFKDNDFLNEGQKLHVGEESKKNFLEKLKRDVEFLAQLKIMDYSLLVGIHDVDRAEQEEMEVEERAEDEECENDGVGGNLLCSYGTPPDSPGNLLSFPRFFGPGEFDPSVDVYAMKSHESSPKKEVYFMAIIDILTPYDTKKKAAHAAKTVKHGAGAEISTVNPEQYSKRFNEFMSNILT

RET(V804L) = RET(V804L) (Homo sapiens, UniProt P07949, V804L)
INSRR = INSRR (Homo sapiens, UniProt P14616)
[2] = target: T4, ABL1(H396P)-nonphosphorylated (Homo sapiens, UniProt P00519, H396P)
T4 construct: nonphosphorylated

ARK5 = target: T5, ARK5 (Homo sapiens, UniProt O60285)
T5 construct: gene NUAK1
T5 sequence (O60285 1-661): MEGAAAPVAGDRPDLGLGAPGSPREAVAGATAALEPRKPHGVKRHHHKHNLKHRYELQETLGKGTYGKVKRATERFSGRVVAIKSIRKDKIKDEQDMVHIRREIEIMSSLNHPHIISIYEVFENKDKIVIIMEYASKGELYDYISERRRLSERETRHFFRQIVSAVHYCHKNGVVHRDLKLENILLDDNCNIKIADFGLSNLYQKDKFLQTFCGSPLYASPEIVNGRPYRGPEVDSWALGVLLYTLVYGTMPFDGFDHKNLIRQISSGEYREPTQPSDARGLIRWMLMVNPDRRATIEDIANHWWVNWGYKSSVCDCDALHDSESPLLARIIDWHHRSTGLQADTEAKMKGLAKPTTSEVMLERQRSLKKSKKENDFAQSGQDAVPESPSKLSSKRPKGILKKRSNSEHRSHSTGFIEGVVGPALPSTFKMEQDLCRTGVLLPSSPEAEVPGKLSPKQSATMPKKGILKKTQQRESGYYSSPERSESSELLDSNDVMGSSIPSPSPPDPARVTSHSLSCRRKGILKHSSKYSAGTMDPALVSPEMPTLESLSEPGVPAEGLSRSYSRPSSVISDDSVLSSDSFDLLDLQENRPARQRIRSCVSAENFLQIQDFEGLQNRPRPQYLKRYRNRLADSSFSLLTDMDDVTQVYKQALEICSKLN

SLK = SLK (Homo sapiens, UniProt Q9H2G2)
[3] = read-out: Talazoparib (BMN 673) / %Ctrl @ 10000nM
[4] = read-out: Olaparib / %Ctrl @ 10000nM
[5] = read-out: Niraparib (MK-4827) / %Ctrl @ 10000nM
[6] = read-out: Rucaparib / %Ctrl @ 10000nM, binding competition, % of control

Sequence of ROCK1 (Q13464 whole entry): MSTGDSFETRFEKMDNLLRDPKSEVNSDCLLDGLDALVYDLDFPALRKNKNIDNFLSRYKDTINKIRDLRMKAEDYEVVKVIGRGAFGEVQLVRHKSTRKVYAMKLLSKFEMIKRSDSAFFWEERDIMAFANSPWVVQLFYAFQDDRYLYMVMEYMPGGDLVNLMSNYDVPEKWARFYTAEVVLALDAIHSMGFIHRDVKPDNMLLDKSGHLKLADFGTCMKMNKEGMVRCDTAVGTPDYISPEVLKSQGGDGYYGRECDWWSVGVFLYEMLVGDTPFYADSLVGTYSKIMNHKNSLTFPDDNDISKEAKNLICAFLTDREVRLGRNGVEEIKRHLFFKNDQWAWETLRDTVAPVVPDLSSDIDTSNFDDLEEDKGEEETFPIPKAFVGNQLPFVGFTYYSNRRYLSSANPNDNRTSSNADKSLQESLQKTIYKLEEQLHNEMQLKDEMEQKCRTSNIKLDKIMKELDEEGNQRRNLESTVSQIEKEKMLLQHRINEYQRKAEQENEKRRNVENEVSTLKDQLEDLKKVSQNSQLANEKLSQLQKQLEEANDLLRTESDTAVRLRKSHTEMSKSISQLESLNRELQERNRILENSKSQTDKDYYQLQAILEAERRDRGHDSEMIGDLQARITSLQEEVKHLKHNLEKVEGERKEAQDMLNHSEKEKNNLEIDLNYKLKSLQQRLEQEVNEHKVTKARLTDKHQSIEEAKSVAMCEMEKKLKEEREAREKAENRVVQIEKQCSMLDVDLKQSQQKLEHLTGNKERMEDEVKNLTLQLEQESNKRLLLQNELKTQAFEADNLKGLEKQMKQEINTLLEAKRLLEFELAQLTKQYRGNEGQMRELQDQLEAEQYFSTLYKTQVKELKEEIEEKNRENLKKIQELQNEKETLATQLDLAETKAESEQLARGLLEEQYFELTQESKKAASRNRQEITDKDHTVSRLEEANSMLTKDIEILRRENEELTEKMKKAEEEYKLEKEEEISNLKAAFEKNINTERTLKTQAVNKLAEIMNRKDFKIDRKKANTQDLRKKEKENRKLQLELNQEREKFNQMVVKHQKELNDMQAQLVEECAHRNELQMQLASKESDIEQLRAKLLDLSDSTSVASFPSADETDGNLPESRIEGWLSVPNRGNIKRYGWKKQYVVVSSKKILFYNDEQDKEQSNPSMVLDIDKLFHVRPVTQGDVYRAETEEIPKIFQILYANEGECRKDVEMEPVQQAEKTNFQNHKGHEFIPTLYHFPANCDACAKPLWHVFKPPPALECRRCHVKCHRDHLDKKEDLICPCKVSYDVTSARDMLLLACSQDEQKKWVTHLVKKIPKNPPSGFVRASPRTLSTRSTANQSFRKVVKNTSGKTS
T1 sequence (O75582 whole entry): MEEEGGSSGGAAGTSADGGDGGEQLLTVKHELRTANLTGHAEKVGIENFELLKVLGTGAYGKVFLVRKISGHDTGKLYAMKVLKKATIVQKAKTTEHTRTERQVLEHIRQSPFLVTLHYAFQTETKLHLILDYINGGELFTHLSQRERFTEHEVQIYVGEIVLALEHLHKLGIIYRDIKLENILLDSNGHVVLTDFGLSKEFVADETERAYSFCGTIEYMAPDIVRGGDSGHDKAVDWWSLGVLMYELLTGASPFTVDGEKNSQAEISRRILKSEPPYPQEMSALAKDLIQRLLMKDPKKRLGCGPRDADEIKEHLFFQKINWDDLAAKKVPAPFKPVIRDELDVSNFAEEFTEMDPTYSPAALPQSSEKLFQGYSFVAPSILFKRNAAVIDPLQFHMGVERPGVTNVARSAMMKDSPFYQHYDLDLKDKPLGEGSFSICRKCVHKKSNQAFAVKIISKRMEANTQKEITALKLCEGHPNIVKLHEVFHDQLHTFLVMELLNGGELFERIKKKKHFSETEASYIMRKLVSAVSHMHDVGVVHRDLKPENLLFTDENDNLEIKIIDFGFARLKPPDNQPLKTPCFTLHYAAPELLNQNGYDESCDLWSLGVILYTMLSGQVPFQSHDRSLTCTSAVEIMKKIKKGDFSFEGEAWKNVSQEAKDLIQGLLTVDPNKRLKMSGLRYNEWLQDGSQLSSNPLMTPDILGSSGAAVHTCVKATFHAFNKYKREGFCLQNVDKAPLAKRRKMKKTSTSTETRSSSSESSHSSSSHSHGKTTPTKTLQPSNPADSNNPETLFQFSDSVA
Sequence of PIK3CA(H1047Y) (P42336 whole entry H1047Y): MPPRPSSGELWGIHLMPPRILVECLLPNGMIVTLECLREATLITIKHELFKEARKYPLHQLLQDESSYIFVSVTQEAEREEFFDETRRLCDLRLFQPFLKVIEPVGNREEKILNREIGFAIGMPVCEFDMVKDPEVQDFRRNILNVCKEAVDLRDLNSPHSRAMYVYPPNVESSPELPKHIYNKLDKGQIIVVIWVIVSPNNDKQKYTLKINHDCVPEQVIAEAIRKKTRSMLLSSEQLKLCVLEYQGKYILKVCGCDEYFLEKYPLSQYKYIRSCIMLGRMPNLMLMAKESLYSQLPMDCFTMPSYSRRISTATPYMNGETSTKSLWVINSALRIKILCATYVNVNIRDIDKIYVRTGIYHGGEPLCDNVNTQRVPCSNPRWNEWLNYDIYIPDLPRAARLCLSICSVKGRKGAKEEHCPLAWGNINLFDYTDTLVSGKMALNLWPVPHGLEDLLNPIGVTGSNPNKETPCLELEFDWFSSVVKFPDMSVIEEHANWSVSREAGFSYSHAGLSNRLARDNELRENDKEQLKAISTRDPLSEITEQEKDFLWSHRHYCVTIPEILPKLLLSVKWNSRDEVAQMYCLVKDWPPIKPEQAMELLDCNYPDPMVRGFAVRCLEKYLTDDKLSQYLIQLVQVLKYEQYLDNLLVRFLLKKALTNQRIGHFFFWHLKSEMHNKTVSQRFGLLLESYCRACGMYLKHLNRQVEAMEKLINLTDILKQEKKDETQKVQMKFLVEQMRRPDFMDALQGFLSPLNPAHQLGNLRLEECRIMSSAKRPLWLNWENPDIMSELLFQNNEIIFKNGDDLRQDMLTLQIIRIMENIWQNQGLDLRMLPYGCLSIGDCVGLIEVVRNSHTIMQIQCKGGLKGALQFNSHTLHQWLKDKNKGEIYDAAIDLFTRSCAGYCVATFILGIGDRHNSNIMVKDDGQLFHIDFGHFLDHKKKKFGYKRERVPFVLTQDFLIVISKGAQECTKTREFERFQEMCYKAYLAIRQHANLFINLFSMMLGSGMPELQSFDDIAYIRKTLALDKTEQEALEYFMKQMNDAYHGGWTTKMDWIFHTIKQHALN
Sequence of SLK (Q9H2G2 whole entry): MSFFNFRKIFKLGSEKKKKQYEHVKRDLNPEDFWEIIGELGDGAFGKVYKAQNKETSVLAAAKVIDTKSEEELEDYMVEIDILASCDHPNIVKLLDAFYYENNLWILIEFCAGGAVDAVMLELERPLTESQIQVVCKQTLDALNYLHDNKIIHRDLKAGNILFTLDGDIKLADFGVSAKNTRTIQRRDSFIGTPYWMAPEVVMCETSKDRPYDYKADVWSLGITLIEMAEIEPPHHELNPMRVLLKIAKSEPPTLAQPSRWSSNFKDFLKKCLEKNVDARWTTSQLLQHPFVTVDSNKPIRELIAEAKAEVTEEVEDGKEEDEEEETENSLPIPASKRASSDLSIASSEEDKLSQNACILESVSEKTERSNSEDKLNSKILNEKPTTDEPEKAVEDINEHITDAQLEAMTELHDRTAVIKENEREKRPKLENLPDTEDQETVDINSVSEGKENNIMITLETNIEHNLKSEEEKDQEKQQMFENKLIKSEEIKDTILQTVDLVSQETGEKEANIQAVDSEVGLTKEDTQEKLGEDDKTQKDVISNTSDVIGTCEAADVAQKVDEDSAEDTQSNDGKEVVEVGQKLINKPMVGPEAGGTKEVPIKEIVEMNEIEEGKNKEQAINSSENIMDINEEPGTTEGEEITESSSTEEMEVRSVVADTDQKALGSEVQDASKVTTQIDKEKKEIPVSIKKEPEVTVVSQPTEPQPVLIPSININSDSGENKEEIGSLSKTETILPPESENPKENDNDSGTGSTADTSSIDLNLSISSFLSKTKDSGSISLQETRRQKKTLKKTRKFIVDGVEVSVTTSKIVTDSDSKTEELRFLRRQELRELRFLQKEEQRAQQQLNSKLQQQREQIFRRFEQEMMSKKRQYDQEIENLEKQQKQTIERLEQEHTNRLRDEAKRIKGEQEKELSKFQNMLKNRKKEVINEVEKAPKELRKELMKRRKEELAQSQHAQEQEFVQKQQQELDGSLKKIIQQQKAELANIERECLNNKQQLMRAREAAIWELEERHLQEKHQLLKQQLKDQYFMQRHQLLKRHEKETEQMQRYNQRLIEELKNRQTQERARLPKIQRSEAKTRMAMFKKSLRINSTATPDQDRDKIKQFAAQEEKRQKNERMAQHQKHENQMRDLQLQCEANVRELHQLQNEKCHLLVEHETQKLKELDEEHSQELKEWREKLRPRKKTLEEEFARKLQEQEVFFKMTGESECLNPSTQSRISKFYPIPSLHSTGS

Cn1ncnc1[C@H]1c2n[nH]c(=O)c3cc(F)cc(c23)N[C@@H]1c1ccc(F)cc1 [Talazoparib] gave a percent of control binding at 10 µM [1, 3] of 80%, a percent of control binding at 10 µM (TAK1; [3]) of 100% and a percent of control binding at 10 µM (ROCK1; [3]) of 100%. It also gave a percent of control binding at 10 µM (PIK3CA(H1047Y); [3]) of 89%, a percent of control binding at 10 µM (PIP5K2B; [3]) of 92% and a percent of control binding at 10 µM (RET(V804L); [3]) of 96%. It also gave a percent of control binding at 10 µM (INSRR; [3]) of 100%, a percent of control binding at 10 µM [2, 3] of 92% and a percent of control binding at 10 µM (ARK5; [3]) of 100%. For the same compound, the percent of control binding at 10 µM (SLK; [3]) was 90%.
O=C(c1cc(Cc2n[nH]c(=O)c3ccccc23)ccc1F)N1CCN(C(=O)C2CC2)CC1 [Olaparib] gave a percent of control binding at 10 µM [1, 4] of 97%, a percent of control binding at 10 µM (TAK1; [4]) of 77% and a percent of control binding at 10 µM (ROCK1; [4]) of 97%. The percent of control binding at 10 µM (PIK3CA(H1047Y); [4]) was 100%, the percent of control binding at 10 µM (PIP5K2B; [4]) was 96% and the percent of control binding at 10 µM (RET(V804L); [4]) was 100%. It also gave a percent of control binding at 10 µM (INSRR; [4]) of 100%, a percent of control binding at 10 µM [2, 4] of 82% and a percent of control binding at 10 µM (ARK5; [4]) of 99%. The percent of control binding at 10 µM (SLK; [4]) was 100%.
With NC(=O)c1cccc2cn(-c3ccc([C@@H]4CCCNC4)cc3)nc12 [Niraparib] the percent of control binding at 10 µM [1, 5] was 96%, the percent of control binding at 10 µM (TAK1; [5]) was 38% and the percent of control binding at 10 µM (ROCK1; [5]) was 61%. The percent of control binding at 10 µM (PIK3CA(H1047Y); [5]) was 66%, the percent of control binding at 10 µM (PIP5K2B; [5]) was 80% and the percent of control binding at 10 µM (RET(V804L); [5]) was 92%. For the same compound, the percent of control binding at 10 µM (INSRR; [5]) was 92%, the percent of control binding at 10 µM [2, 5] was 65% and the percent of control binding at 10 µM (ARK5; [5]) was 56%. The percent of control binding at 10 µM (SLK; [5]) was 92%.
CNCc1ccc(-c2[nH]c3cc(F)cc4c3c2CCNC4=O)cc1 [Rucaparib] showed a percent of control binding at 10 µM [1, 6] of 77%, a percent of control binding at 10 µM (TAK1; [6]) of 38% and a percent of control binding at 10 µM (ROCK1; [6]) of 85%. It also gave a percent of control binding at 10 µM (PIK3CA(H1047Y); [6]) of 75%, a percent of control binding at 10 µM (PIP5K2B; [6]) of 87% and a percent of control binding at 10 µM (RET(V804L); [6]) of 95%. For the same compound, the percent of control binding at 10 µM (INSRR; [6]) was 95%, the percent of control binding at 10 µM [2, 6] was 68% and the percent of control binding at 10 µM (ARK5; [6]) was 100%. It also gave a percent of control binding at 10 µM (SLK; [6]) of 98%.
